According to ChEMBL document CHEMBL1909046, “DrugMatrix in vitro pharmacology data”:

Assays:
[1] = DRUGMATRIX: Purinergic P2X radioligand binding (ligand: [3H] alpha, beta-Methylene-ATP); assay type: cell membranes, Oryctolagus cuniculus, New Zealand albino, Urinary bladder, Membrane; conditions: Not Active = under 50% inhibition at 10 µM
Caspase-1 = target: T1, Caspase-1 (Homo sapiens, UniProt P29466); design: species or system Escherichia coli;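 note: Caspase-1 enzyme inhibition assay with a peptide substrate; in other assays of this panel Not Active means under 50% inhibition at 10 µM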
T1 sequence (P29466 whole entry): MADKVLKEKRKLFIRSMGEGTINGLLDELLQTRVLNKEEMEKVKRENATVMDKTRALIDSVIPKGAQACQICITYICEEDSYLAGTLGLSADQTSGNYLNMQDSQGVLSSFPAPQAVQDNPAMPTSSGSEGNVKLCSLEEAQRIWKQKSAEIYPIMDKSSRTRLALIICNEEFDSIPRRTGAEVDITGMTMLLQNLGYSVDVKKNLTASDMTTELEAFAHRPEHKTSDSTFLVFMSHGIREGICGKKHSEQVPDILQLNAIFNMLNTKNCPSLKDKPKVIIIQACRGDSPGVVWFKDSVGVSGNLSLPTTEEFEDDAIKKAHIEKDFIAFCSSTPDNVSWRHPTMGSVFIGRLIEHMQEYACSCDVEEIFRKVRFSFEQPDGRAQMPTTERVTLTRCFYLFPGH

[2] = target: 5-hydroxytryptamine receptor 2B (Homo sapiens, UniProt P41595); assay type: cell membranes, CHO-K1, Membrane; note: in other assays of this panel Not Active means under 50% inhibition at 10 µM
Chain of 5-hydroxytryptamine receptor 2B (P41595 whole entry): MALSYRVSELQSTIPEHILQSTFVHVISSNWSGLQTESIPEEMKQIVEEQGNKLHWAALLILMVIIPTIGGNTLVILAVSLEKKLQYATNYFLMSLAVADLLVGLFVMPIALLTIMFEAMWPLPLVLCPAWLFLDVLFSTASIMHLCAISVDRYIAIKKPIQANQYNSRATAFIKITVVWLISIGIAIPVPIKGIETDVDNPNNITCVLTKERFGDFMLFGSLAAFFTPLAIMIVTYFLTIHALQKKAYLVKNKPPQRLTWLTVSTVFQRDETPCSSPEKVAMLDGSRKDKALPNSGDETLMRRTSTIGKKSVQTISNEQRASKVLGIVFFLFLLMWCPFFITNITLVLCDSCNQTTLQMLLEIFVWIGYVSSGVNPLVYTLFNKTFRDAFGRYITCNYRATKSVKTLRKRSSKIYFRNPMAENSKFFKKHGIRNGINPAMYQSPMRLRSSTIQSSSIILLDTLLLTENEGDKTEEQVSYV

Melanocortin receptor 4 = Melanocortin receptor 4 (Homo sapiens, UniProt P32245); assay type: cell membranes, Membrane; conditions: hek293; note: in other assays of this panel Not Active means under 50% inhibition at 10 µM
Chain of Melanocortin receptor 4 (P32245 whole entry): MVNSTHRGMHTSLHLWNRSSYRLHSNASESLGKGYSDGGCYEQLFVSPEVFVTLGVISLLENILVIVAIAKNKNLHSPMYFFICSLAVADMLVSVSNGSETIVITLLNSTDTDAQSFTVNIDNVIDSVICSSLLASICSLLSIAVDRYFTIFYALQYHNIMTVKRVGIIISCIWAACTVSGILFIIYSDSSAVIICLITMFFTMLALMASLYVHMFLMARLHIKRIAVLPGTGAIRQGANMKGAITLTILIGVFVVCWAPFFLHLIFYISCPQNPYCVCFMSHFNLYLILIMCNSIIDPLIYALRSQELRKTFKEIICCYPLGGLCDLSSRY

Substance-P receptor = Substance-P receptor (Homo sapiens, UniProt P25103); assay type: cell membranes, Membrane; conditions: cho; note: in other assays of this panel Not Active means under 50% inhibition at 10 µM
Chain of Substance-P receptor (P25103 whole entry): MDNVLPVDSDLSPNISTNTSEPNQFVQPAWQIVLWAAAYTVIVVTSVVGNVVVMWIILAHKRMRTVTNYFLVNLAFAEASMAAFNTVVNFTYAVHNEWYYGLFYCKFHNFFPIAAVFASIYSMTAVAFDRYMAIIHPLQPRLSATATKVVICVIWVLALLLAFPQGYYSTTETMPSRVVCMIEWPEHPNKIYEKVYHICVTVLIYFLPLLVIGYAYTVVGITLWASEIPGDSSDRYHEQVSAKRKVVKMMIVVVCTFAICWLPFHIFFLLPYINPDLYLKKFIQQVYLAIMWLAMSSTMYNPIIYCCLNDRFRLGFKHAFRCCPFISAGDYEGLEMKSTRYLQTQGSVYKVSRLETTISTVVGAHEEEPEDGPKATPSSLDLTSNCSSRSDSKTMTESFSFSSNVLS

Nitric oxide synthase 1 = Nitric oxide synthase 1 (Rattus norvegicus, UniProt P29476); assay type: tissue-based, Cerebellum; note: in other assays of this panel Not Active means under 50% inhibition at 10 µM
Chain of Nitric oxide synthase 1 (P29476 whole entry): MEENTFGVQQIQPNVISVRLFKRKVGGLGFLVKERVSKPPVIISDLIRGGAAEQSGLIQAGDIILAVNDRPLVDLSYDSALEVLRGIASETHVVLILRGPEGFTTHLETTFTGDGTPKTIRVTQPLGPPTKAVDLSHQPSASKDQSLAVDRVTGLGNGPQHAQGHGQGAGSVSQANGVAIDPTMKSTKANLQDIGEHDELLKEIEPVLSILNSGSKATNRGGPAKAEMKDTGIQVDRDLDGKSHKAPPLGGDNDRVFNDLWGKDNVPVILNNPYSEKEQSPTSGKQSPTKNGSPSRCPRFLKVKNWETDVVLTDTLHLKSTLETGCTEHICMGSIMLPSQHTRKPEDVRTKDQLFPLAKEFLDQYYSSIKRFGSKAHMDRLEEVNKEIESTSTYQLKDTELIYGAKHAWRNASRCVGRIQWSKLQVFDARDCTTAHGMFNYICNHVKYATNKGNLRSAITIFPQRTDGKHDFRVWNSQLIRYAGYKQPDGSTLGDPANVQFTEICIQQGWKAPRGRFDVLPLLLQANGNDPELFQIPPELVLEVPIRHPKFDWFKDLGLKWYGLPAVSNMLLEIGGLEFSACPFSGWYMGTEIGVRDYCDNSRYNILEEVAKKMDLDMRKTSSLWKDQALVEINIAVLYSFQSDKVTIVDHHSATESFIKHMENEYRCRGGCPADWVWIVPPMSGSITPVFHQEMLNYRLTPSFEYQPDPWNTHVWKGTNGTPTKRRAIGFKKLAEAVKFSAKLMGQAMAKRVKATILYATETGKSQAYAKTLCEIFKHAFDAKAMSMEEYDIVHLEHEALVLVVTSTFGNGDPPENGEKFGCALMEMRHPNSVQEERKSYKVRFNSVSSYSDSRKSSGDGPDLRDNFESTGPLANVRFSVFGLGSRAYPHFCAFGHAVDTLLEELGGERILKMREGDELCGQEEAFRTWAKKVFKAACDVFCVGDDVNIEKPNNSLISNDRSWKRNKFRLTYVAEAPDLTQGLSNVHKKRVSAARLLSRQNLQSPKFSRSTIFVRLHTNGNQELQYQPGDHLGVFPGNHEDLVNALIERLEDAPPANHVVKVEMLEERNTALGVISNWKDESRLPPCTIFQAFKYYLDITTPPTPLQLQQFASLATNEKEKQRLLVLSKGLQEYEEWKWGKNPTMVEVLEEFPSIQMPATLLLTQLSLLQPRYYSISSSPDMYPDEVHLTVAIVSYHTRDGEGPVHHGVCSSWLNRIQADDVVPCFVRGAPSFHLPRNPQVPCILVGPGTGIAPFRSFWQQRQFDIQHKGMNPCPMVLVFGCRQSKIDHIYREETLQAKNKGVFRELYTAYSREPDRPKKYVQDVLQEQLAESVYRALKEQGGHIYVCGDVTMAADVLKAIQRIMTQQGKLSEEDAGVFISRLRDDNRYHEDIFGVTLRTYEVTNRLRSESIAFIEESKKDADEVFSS

Cytochrome P450 3A4 = Cytochrome P450 3A4 (Homo sapiens, UniProt P08684); conditions: bti-tn-5b1-4; note: in other assays of this panel Not Active means under 50% inhibition at 10 µM
Chain of Cytochrome P450 3A4 (P08684 whole entry): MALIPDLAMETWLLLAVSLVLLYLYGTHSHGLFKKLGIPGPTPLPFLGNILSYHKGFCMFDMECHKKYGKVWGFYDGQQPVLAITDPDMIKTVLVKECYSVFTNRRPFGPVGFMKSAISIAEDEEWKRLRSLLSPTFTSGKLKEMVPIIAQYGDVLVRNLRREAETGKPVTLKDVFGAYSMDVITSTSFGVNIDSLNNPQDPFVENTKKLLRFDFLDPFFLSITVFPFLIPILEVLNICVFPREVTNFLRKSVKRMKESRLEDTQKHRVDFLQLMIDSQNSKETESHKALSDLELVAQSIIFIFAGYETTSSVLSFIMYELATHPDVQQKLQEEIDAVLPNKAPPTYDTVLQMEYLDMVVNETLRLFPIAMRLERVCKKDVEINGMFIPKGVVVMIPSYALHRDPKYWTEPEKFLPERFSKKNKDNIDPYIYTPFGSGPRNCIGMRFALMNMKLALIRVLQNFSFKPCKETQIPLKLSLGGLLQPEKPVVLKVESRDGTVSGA

Row | SMILES | IC50 [1] | Ki [1] | IC50 (Caspase-1) | IC50 ([2]; cho-k1) | IC50 (Melanocortin receptor 4) | IC50 (Substance-P receptor) | IC50 (Nitric oxide synthase 1) | IC50 (Cytochrome P450 3A4) | Ki (Cytochrome P450 3A4) | Ki ([2]; cho-k1) | IC50 ([2]; read-out: IC50) | Ki ([2]; read-out: Ki)
1 | O=C(N[C@H](CO)[C@H](O)c1ccc([N+](=O)[O-])cc1)C(Cl)Cl [CHLORAMPHENICOL] | Not Active | Not Active | Not Active | Not Active | Not Active | Not Active | Not Active | – | – | – | – | –
2 | Cn1c(=O)c2c(ncn2CC2OCCO2)n(C)c1=O [DOXOFYLLINE] | Not Active | Not Active | Not Active | Not Active | Not Active | Not Active | Not Active | Not Active | Not Active | – | – | –
3 | CCC1=C[C@@H]2CN(C1)Cc1c([nH]c3ccccc13)[C@@](C(=O)OC)(c1cc3c(cc1OC)N(C)[C@H]1[C@@](O)(C(=O)OC)[C@H](OC(C)=O)[C@]4(CC)C=CCN5CC[C@]31[C@@H]54)C2 [VINORELBINE] | Not Active | Not Active | Not Active | Not Active | Not Active | Not Active | Not Active | – | – | – | – | –
4 | CC(C(=O)O)c1cccc(C(=O)c2ccccc2)c1 (stereo not given) [KETOPROFEN] | Not Active | Not Active | Not Active | Not Active | Not Active | Not Active | Not Active | Not Active | Not Active | – | – | –
5 | O=c1ccc2ccccc2o1 [COUMARIN] | Not Active | Not Active | Not Active | – | Not Active | Not Active | Not Active | Not Active | Not Active | Not Active | – | –
6 | CC1(C)O[C@@H]2C[C@H]3[C@@H]4C[C@H](F)C5=CC(=O)C=C[C@]5(C)[C@H]4[C@@H](O)C[C@]3(C)[C@]2(C(=O)CO)O1 [FLUNISOLIDE] | Not Active | Not Active | Not Active | Not Active | Not Active | Not Active | Not Active | Not Active | Not Active | – | – | –
7 | CC1(C)O[C@@H]2C[C@H]3[C@@H]4C[C@H](F)C5=CC(=O)C=C[C@]5(C)[C@@]4(F)[C@@H](O)C[C@]3(C)[C@]2(C(=O)CO)O1 [FLUOCINOLONE ACETONIDE] | Not Active | Not Active | Not Active | Not Active | Not Active | Not Active | Not Active | Not Active | Not Active | – | – | –
8 | N=C(Nc1ccccc1)Nc1ccccc1 | Not Active | Not Active | Not Active | Not Active | Not Active | Not Active | Not Active | Not Active | Not Active | – | – | –
9 | CC[C@@H](CO)NCCN[C@@H](CC)CO [ETHAMBUTOL] | Not Active | Not Active | Not Active | Not Active | Not Active | Not Active | Not Active | Not Active | Not Active | – | – | –
10 | CN1C(=O)COc2c(C(=O)NC3CN4CCC3CC4)cc(Cl)cc21 (stereo not given) [AZASETRON] | Not Active | Not Active | Not Active | Not Active | Not Active | Not Active | Not Active | Not Active | Not Active | – | – | –
11 | O=NN(CCCl)C(=O)NCCCl [CARMUSTINE] | Not Active | Not Active | Not Active | Not Active | Not Active | Not Active | Not Active | – | – | – | – | –
12 | O=C(C1CCCCC1)N1CC(=O)N2CCc3ccccc3C2C1 (stereo not given) [PRAZIQUANTEL] | Not Active | Not Active | Not Active | Not Active | Not Active | Not Active | Not Active | Not Active | Not Active | – | – | –
13 | C[C@]12CC[C@@H]3c4ccc(OC(=O)c5ccccc5)cc4CC[C@H]3[C@@H]1CC[C@@H]2O [ESTRADIOL BENZOATE] | Not Active | Not Active | Not Active | – | Not Active | Not Active | Not Active | Not Active | Not Active | – | 11.6 µM | 7.36 µM
14 | C[N+](C)(C)CCO.[Cl-] [CHOLINE CHLORIDE] | Not Active | Not Active | Not Active | Not Active | Not Active | Not Active | Not Active | Not Active | Not Active | – | – | –
15 | NC(=O)NO [HYDROXYUREA] | Not Active | Not Active | Not Active | Not Active | Not Active | Not Active | Not Active | – | – | – | – | –
16 | C[C@@]12C(=O)OC(=O)[C@]1(C)[C@H]1CC[C@@H]2O1 [CANTHARIDIN] | Not Active | Not Active | Not Active | Not Active | Not Active | Not Active | Not Active | Not Active | Not Active | – | – | –
17 | O=S(=O)([O-])CCS.[Na+] [MESNA] | Not Active | Not Active | Not Active | Not Active | Not Active | Not Active | Not Active | Not Active | Not Active | – | – | –
18 | CCN[C@@H]1C[C@H](N)[C@@H](O[C@H]2OC(CN)=CC[C@H]2N)[C@H](O)[C@H]1O[C@H]1OC[C@](C)(O)[C@H](NC)[C@H]1O [NETILMICIN] | Not Active | Not Active | Not Active | Not Active | Not Active | Not Active | Not Active | Not Active | Not Active | – | – | –
19 | C/C=C/C[C@@H](C)[C@@H](O)[C@H]1C(=O)N[C@@H](CC)C(=O)N(C)CC(=O)N(C)[C@@H](CC(C)C)C(=O)N[C@@H](C(C)C)C(=O)N(C)[C@@H](CC(C)C)C(=O)N[C@@H](C)C(=O)N[C@H](C)C(=O)N(C)[C@@H](CC(C)C)C(=O)N(C)[C@@H](CC(C)C)C(=O)N(C)[C@@H](C(C)C)C(=O)N1C [CYCLOSPORINE] | Not Active | Not Active | Not Active | Not Active | Not Active | Not Active | Not Active | – | – | – | – | –
20 | CCOC(=O)C(C)(C)Oc1ccc(Cl)cc1 [CLOFIBRATE] | Not Active | Not Active | Not Active | Not Active | Not Active | Not Active | Not Active | – | – | – | – | –
21 | C#C[C@]1(OC(C)=O)CC[C@H]2[C@@H]3CCC4=CC(=O)CC[C@@H]4[C@H]3CC[C@@]21C [NORETHINDRONE ACETATE] | Not Active | Not Active | Not Active | Not Active | Not Active | Not Active | Not Active | Not Active | Not Active | – | – | –
22 | COC(=O)C1=C(C)NC(C)=C(C(=O)OCC(C)C)C1c1ccccc1[N+](=O)[O-] (stereo not given) [NISOLDIPINE] | Not Active | Not Active | Not Active | Not Active | Not Active | Not Active | Not Active | – | – | – | – | –
23 | C[C@@H]1C[C@@H]([C@H](O)CC2CC(=O)NC(=O)C2)C(=O)[C@@H](C)C1 [CYCLOHEXIMIDE] | Not Active | Not Active | Not Active | Not Active | Not Active | Not Active | Not Active | – | – | – | – | –
24 | O=C1CC2(CCCC2)CC(=O)N1CCCCN1CCN(c2ncccn2)CC1 [BUSPIRONE] | Not Active | Not Active | Not Active | – | Not Active | Not Active | Not Active | – | – | – | 0.75 µM | 0.477 µM
25 | CN(C)c1ccc(C(=C2C=CC(=[N+](C)C)C=C2)c2ccc(N(C)C)cc2)cc1.[Cl-] [GENTIAN VIOLET] | Not Active | Not Active | Not Active | Not Active | Not Active | Not Active | Not Active | – | – | – | – | –
26 | CCn1cc(C(=O)O)c(=O)c2cc(F)c(N3CCN(C)CC3)cc21 [PEFLOXACIN] | Not Active | Not Active | Not Active | Not Active | Not Active | Not Active | Not Active | – | – | – | – | –
27 | CC1=C(C(=O)O)N2C(=O)[C@@H](NC(=O)[C@H](N)c3ccccc3)[C@H]2SC1 [CEPHALEXIN ANHYDROUS] | Not Active | Not Active | Not Active | Not Active | Not Active | Not Active | Not Active | – | – | – | – | –
28 | COc1ccc2cc([C@H](C)C(=O)O)ccc2c1 [NAPROXEN] | Not Active | Not Active | Not Active | Not Active | Not Active | Not Active | Not Active | – | – | – | – | –
29 | CC(C)(C(=O)c1cccnc1)c1cccnc1 [METYRAPONE] | Not Active | Not Active | Not Active | Not Active | Not Active | Not Active | Not Active | – | – | – | – | –
